Measured values reported in patent US8426602B2, “Heteroaryl-substituted dicyanopyridines and their use” (Bayer Intellectual Property GmbH, priority 2008, dated 2013).

Columns and labels:
Type in all cases: cell-based
[1] = target: T1, adenosine receptor subtype A2a (Homo sapiens, UniProt P29274); test: Indirect determination of adenosine antagonism via gene expression (CRE luciferase), A2a cells; settings: table after B-5; CHO K1 A2a cells; agonist 30 nM NECA
T1 construct: expressed in transfected cells; host or cells: CHO K1
T1 sequence (P29274 whole entry): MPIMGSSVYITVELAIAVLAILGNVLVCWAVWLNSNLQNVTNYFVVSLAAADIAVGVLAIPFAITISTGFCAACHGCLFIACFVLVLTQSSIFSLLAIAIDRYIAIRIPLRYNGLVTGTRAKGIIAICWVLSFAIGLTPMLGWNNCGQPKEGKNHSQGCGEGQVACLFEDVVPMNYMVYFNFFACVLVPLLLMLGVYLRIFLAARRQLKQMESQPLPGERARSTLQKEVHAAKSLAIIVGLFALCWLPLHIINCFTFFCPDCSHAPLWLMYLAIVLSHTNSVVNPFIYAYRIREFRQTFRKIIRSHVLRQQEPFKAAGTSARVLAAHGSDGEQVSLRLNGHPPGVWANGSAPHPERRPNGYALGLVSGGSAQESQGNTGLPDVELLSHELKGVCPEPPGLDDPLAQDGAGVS
Description: (§1) B-5. Indirect Determination of Adenosine Antagonism Via Gene Expression
(§2) Cells of the permanent line CHO K1 (Chinese Hamster Ovary) are stably transfected with a reporter construct (CRE luciferase) and the cDNA for the adenosine receptor subtype A2a or A2b. A2a or A2b receptors are coupled via Gas proteins to the adenylate cyclase. Through receptor activation, the adenylate cyclase is activated and therefore the cAMP level in the cell increases. Via the reporter construct, a cAMP-dependent promoter, the change in the cAMP level is coupled to luciferase expression.
(§3) The permanent cell lines are cultured in DMEM/F12 (Cat.No. BE04-687Q; BioWhittaker) with 10% FCS (fetal calf serum) and various additives (20 ml/liter 1 M HEPES (Cat. No. 15630; Gibco), 20 ml/liter GlutaMAX (Cat. No. 35050-038, Gibco), 14 ml/liter MEM sodium pyruvate (Cat. No. 11360-039; Gibco) 10 ml/liter PenStrep (Cat. No. 15070-063; Gibco)) at 37° C. under 5% carbon dioxide, and split twice weekly.
(§4) For testing in the 384-well plate format, the cells are sown at 2000 cells/well in 25 μl/well sowing medium and cultured at 37° C. under 5% carbon dioxide until substance testing. […] The luciferase activity is detected with a luminescence reader. […]

[2] = target: T2, adenosine receptor subtype A1 (A1-Gα 16 fusion construct) (Homo sapiens, UniProt P30542); test: Indirect determination of adenosine antagonism via gene expression (NFAT luciferase), A1-Gα16 cells; settings: CHO K1 A1-Gα16 cells; agonist 25 nM CPA
T2 construct: "an A1-Gα 16 fusion construct
T2 sequence (P30542 1-326): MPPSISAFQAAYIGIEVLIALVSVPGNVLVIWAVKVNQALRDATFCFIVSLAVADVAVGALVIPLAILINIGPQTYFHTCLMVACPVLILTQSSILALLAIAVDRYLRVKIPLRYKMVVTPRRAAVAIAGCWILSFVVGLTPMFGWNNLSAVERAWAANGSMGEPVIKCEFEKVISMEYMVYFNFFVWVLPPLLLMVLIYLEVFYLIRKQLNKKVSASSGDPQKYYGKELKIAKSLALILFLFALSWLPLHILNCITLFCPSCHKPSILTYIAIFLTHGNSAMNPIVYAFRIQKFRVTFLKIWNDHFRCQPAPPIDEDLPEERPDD
Description: as §1
For determination of adenosine antagonism on the adenosine receptor subtype A1, once again CHO K1 cells are stably transfected, but this time with a Ca^2+-sensitive reporter construct (NFAT-TA-Luc; Clontech) and an A1-Gα 16 fusion construct. This receptor chimera is, in contrast to the native A1 receptor (Gαi-coupling), coupled to the phospholipase C. The luciferase is expressed here as a function of the cytosolic Ca^2+concentration.
as §3
as §4, with “testing. The A2a and A2b cells are sown, 24 h before substance testing, in medium with additives and 5% FCS, the base medium used for the A2a cells being DMEM/F12 and the base medium used for the A2b cells being OptiMEM (Cat. No. 31985-047; Gibco).” for “testing.”

[3] = target: T3, adenosine receptor subtype A2b (Homo sapiens, UniProt P29275); test: Indirect determination of adenosine antagonism via gene expression (CRE luciferase), A2b cells; settings: table after B-5; CHO K1 A2b cells; agonist 30 nM NECA
T3 construct: expressed in transfected cells; host or cells: CHO K1
T3 sequence (P29275 1-332): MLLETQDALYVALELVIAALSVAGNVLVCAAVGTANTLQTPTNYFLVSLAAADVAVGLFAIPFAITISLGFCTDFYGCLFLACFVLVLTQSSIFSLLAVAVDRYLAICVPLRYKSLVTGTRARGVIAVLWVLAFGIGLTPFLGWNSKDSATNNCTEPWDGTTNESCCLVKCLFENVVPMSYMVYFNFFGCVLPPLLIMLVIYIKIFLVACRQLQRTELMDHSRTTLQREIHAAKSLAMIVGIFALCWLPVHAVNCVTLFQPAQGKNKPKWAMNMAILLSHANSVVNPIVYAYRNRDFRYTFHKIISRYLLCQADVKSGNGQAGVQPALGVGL
Description: as §1, §2, §3, §4

adenosine A2a receptor = target: T4, adenosine A2a receptor (Homo sapiens, UniProt P29274); test: Indirect determination of adenosine agonism by way of gene expression (luciferase), A2a cells; settings: stably transfected CHO cells; 50% of maximum stimulation of luciferase
T4 construct: expressed in transfected cells; host or cells: CHO (Chinese Hamster Ovary)
T4 sequence (P29274 whole entry): as the sequence (P29274 whole entry) above
Description: (§5) B-1. Indirect Determination of the Adenosine Agonism by Way of Gene Expression
(§6) Cells of the CHO (Chinese Hamster Ovary) permanent line are transfected stably with the cDNA for the adenosine receptor subtypes A1, A2a and A2b. The adenosine A1 receptors are coupled to the adenylate cyclase by way of Gi proteins, while the adenosine A2a and A2b receptors are coupled by way of Gs proteins. In correspondence with this, the formation of cAMP in the cell is inhibited or stimulated, respectively. After that, expression of the luciferase is modulated by way of a cAMP-dependent promoter. The luciferase test is optimized, with the aim of high sensitivity and reproducibility, low variance and good suitability for implementation on a robot system, by varying several test parameters, such as cell density, duration of the growth phase and the test incubation, forskolin concentration and medium composition. The following test protocol is used for pharmacologically characterizing cells and for the robot-assisted substance screening:
(§7) The stock cultures are grown, at 37° C. and under 5% CO2, in DMEM/F12 medium containing 10% FCS (fetal calf serum) and in each case split 1:10 after 2-3 days. Test cultures are seeded in 384-well plates with 2000 cells per well and grown at 37° C. for approx. 48 hours. The medium is then replaced with a physiological sodium chloride solution (130 mM sodium chloride, 5 mM potassium chloride, 2 mM calcium chloride, 20 mM HEPES, 1 mM magnesium chloride hexahydrate, 5 mM sodium bicarbonate, pH 7.4). The substances to be tested, which are dissolved in DMSO, are pipetted into the test cultures (maximum final concentration of DMSO in the test mixture: 0.5%) in a dilution series of from 5×10^−11 M to 3×10^−6 M (final concentration). 10 minutes later, forskolin is added to the A1 cells and all the cultures are subsequently incubated at 37° C. for four hours. After that, 35 μl of a solution which is composed of 50% lysis reagent (30 mM disodium hydrogenphosphate, 10% glycerol, 3% TritonX100, 25 mM TrisHCl, 2 mM dithiotreitol (DTT), pH 7.8) and 50% luciferase substrate solution (2.5 mM ATP, 0.5 mM luciferin, 0.1 mM coenzyme A, 10 mM tricine, 1.35 mM magnesium sulfate, 15 mM DTT, pH 7.8) are added to the test cultures, which are shaken for approx. 1 minute and the luciferase activity is measured using a camera system. The EC50 values are determined, i.e., the concentrations at which 50% of the luciferase response is inhibited in the case of the A1 cell, and, respectively, 50% of the maximum stimulation with the corresponding substance is achieved in the case of the A2b and A2a cells. […] Pharmacol., 357, 1-9 (1998)).

adenosine A1 receptor = target: T5, adenosine A1 receptor (Homo sapiens, UniProt P30542); test: Indirect determination of adenosine agonism by way of gene expression (luciferase), A1 cells; settings: stably transfected CHO cells; 1 μM forskolin; 50% inhibition of luciferase response
T5 construct: expressed in transfected cells; host or cells: CHO (Chinese Hamster Ovary)
T5 sequence (P30542 1-326): T2 sequence (P30542 1-326)
Description: as §5, §6, §7

adenosine A2b receptor = target: T6, adenosine A2b receptor (Homo sapiens, UniProt P29275); test: Indirect determination of adenosine agonism by way of gene expression (luciferase), A2b cells; settings: stably transfected CHO cells; 50% of maximum stimulation of luciferase
T6 construct: expressed in transfected cells; host or cells: CHO (Chinese Hamster Ovary)
T6 sequence (P29275 1-332): T3 sequence (P29275 1-332)
Description: as §5, §6, §7

| EC50 [1] [nM] | IC50 [2] [nM] | EC50 [3] [nM] | EC50 (adenosine A2a receptor) [nM] | EC50 (adenosine A1 receptor) [nM] | EC50 (adenosine A2b receptor) [nM] | Structure (SMILES) |
| --- | --- | --- | --- | --- | --- | --- |
|  |  |  | 6500 | 1.1 | 6500 | N#Cc1c(SCc2csc(-c3ccc(Cl)cc3)n2)nc(N2CC(O)C2)c(C#N)c1-c1cc[nH]n1 [Example 27] |
|  |  |  | 2470 | 0.6 | 1280 | N#Cc1c(SCc2csc(-c3ccc(Cl)cc3)n2)nc(N2CC(O)C2)c(C#N)c1-c1nccs1 [Example 22] |
|  |  |  | 3000 | 0.5 | 3000 | N#Cc1c(SCc2csc(-c3ccc(Cl)cc3)n2)nc(N2CC[C@@H](O)C2)c(C#N)c1-c1cncs1 [Example 47, 2-({[2-(4-Chlorophenyl)-1,3-thiazol-4-yl]methyl}sulfanyl)-6-[(3R)-3-hydroxypyrrolidin-1-yl]-4-(1,3-thiazol-5-yl)pyridine-3,5-dicarbonitrile] |
|  | 3.6 | 267 |  |  |  | CNC(=O)c1cc(CSc2nc(NCCO)c(C#N)c(-c3cc[nH]n3)c2C#N)ccn1 [Example 29] |
|  |  |  | 2000 | 1.9 | 1410 | CC(O)Cn1ccc(-c2c(C#N)c(N)nc(SCc3csc(-c4ccc(Cl)cc4)n3)c2C#N)n1 (centres unmarked) [Example 30, 2-Amino-6-([2-(4-chlorophenyl)-1,3-thiazol-4-yl]methylsulfanyl)-4-[1-(2-hydroxypropyl)-1H-pyrazol-3-yl]pyridine-3,5-dicarbonitrile] |
|  |  |  | 184 | 0.3 | 34 | N#Cc1c(N)nc(SCc2csc(-c3ccc(Cl)cc3)n2)c(C#N)c1-c1cccs1 [Example 32, 2-Amino-6-({[2-(4-chlorophenyl)-1,3-thiazol-4-yl]methyl}sulfanyl)-4-thiophen-2-ylpyridine-3,5-dicarbonitrile] |
|  |  |  | 88 | 0.05 | 28 | N#Cc1c(N)nc(SCc2cccc(C(N)=O)c2)c(C#N)c1-c1cccs1 [Example 37, 3-({[6-Amino-3,5-dicyano-4-(2-thienyl)pyridin-2-yl]thio}methyl)benzamide] |

Second part, the compound before the results:

| Structure (SMILES) | EC50 [1] [nM] | IC50 [2] [nM] | EC50 [3] [nM] | EC50 (adenosine A2a receptor) [nM] | EC50 (adenosine A1 receptor) [nM] | EC50 (adenosine A2b receptor) [nM] |
| --- | --- | --- | --- | --- | --- | --- |
| CNC(=O)c1cc(CSc2nc(N)c(C#N)c(-c3cc[nH]n3)c2C#N)ccn1 [Example 15] | ≥ 50000 | 0.5 | 40 |  |  |  |
| N#Cc1c(NC[C@H](O)CO)nc(SCc2csc(-c3ccc(Cl)cc3)n2)c(C#N)c1-c1nccs1 [Example 21] |  |  |  | 378 | 0.5 | 3000 |
| N#Cc1c(N)nc(SCc2coc(-c3ccc(Cl)cc3)n2)c(C#N)c1-c1cncs1 [Example 4, 2-Amino-6-([2-(4-chlorophenyl)-1,3-oxazol-4-yl]methylsulfanyl)-4-(1,3-thiazol-5-yl)pyridine-3,5-dicarbonitrile] |  |  |  | 3000 | 0.9 | 3000 |
| N#Cc1c(SCc2csc(-c3ccc(Cl)cc3)n2)nc(N2CC(O)C2)c(C#N)c1-c1cncs1 [Example 16, 2-([2-(4-Chlorophenyl)-1,3-thiazol-4-yl]methylsulfanyl)-6-(3-hydroxyazetidin-1-yl)-4-(1,3-thiazol-5-yl)pyridine-3,5-dicarbonitrile] |  |  |  | 3000 | 0.4 | 3000 |
| N#Cc1c(SCc2coc(-c3ccc(Cl)cc3)n2)nc(N2CC(O)C2)c(C#N)c1-c1nccs1 [Example 20] |  |  |  | 3000 | 0.5 | 1800 |
| N#Cc1c(N)nc(SCc2csc(-c3ccc(Cl)cc3)n2)c(C#N)c1-c1cscn1 [Example 1, 2-Amino-6-([2-(4-chlorophenyl)-1,3-thiazol-4-yl]methylsulfanyl)-4-(1,3-thiazol-4-yl)pyridine-3,5-dicarbonitrile] |  |  |  | 3000 | 0.5 | 1570 |
| N#Cc1c(N)nc(SCc2csc(-c3ccc(Cl)cc3)n2)c(C#N)c1-c1cnc[nH]1 [Example 8] |  |  |  | 275 | 1.2 | 715 |
| N#Cc1c(N)nc(SCc2coc(-c3ccc(Cl)cc3)n2)c(C#N)c1-c1cn[nH]c1 [Example 12] |  |  |  | 3000 | 2.4 | 3000 |
